Measured values as given in paper PMC11743026, “Cortisol regulates neonatal lung development via Smoothened” (Respiratory Research, 2025).

Assays:
[1] = target: T1, Smoothened (SMO) (Homo sapiens, UniProt Q99835); test: Asp-evoked current in HeLa cells expressing WT SMO; effect lost with L112A; format: cell-based
T1 construct: full-length SMO expressed in HeLa cells

[2] = target: T2, Smoothened (SMO) (Homo sapiens, UniProt Q99835, Y394F); test: free cortisol competes with biotinylated cholesterol beads for purified Y394F SMO; format: binding
T2 construct: purified Y394F SMO
T2 sequence (Q99835 28-787 Y394F): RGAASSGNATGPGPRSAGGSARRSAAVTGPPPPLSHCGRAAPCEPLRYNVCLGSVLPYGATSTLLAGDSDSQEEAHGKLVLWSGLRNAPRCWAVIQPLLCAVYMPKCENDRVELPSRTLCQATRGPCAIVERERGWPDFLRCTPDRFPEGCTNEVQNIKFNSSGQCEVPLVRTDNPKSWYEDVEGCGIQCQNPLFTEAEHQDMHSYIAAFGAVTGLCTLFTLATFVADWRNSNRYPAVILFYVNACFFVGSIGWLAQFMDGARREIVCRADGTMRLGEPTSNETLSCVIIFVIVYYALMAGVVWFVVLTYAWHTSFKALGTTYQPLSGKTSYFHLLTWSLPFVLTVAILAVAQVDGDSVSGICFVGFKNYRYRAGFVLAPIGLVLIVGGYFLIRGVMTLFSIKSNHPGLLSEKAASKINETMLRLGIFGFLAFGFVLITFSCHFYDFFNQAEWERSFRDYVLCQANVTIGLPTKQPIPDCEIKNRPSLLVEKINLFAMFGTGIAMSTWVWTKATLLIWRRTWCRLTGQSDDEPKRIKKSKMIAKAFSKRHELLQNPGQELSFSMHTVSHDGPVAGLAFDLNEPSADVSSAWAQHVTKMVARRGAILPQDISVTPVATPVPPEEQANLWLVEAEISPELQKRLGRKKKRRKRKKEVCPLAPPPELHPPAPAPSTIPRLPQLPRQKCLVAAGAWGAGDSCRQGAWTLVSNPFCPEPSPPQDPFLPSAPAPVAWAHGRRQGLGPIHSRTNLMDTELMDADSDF

[3] = target: T2, Smoothened (SMO); test: pull-down of purified Y394F SMO on biotinylated cholesterol beads; format: binding
[4] = target: T3, Smoothened (SMO) (Homo sapiens, UniProt Q99835, L112A); test: pull-down of purified L112A SMO or CRD on biotinylated cholesterol beads; format: binding
T3 construct: purified L112A SMO; also the L112A CRD fragment
T3 sequence (Q99835 28-787 L112A): as the sequence (Q99835 28-787 Y394F) above, with L85A, F367Y counted along it

T1 sequence (Q99835 28-787): as the sequence (Q99835 28-787 Y394F) above, with F367Y counted along it

SMILES: C[C@]12C[C@H](O)[C@H]3[C@@H](CCC4=CC(=O)CC[C@@]43C)[C@@H]1CC[C@@H]2C(=O)CO [corticosterone]
- Asp-evoked current in HeLa cells expressing WT SMO; effect lost with L112A [1]: The corticosterone inhibition was not observed in the L112A mutant SMO cells

SMILES: C[C@]12CCC(=O)C=C1CC[C@@H]1[C@@H]2[C@@H](O)C[C@@]2(C)[C@H]1CC[C@]2(O)C(=O)CO [Cort, cortisol]
- free cortisol competes with biotinylated cholesterol beads for purified Y394F SM [2]: cortisol remained inhibiting the CB binding to the mutated SMO in a dose-dependent manner

SMILES: CC(C)CCC[C@@H](C)[C@H]1CC[C@H]2[C@@H]3CC=C4C[C@@H](O)CC[C@]4(C)[C@H]3CC[C@]12C [Chol, cholesterol]
- pull-down of purified Y394F SMO on biotinylated cholesterol beads [3]: mutation of the Y394 to F394 did not change CB binding to the SMO
- pull-down of purified L112A SMO or CRD on biotinylated cholesterol beads [4]: The CB remained binding to the purified WT and L112A SMO
